Laboratory results published in ChEMBL document CHEMBL1909046, “DrugMatrix in vitro pharmacology data”.

Legend:
[1] = molecular target: T1, Alpha-1D adrenergic receptor (Homo sapiens, UniProt P25100); format: cell membranes, HEK293, Membrane; conditions: hek293; also: in other assays of this panel Not Active means under 50% inhibition at 10 µM
T1 sequence (P25100 whole entry): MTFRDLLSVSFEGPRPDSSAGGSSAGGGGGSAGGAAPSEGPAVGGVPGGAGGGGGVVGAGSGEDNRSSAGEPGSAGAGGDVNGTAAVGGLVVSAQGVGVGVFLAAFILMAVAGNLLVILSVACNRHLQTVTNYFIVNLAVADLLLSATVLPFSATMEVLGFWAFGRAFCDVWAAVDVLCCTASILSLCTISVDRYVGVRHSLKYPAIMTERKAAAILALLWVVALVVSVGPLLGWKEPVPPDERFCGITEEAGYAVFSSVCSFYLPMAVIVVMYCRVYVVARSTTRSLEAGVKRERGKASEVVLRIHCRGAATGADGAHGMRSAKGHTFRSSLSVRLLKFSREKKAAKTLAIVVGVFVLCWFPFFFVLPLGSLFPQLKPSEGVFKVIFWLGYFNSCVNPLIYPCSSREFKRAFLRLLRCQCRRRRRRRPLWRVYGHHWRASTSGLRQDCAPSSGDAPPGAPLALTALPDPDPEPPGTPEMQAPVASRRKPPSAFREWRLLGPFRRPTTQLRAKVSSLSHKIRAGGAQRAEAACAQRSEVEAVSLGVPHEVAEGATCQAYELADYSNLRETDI

Endothelin-1 receptor = molecular target: T2, Endothelin-1 receptor (Homo sapiens, UniProt P25101); format: cell membranes, Membrane; conditions: cho-k1; also: in other assays of this panel Not Active means under 50% inhibition at 10 µM
T2 sequence (P25101 whole entry): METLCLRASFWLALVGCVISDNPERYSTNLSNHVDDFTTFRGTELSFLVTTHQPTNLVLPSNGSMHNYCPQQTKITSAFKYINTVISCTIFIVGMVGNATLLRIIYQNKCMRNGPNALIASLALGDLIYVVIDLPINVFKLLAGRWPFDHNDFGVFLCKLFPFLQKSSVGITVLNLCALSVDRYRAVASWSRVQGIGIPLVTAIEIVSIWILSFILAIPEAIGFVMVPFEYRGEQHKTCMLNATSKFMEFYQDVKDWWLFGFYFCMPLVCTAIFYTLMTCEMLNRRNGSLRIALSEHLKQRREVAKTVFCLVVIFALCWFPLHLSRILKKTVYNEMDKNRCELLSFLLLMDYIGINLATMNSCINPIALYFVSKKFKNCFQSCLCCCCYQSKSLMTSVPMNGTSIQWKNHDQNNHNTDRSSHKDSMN

[2] = molecular target: Receptor tyrosine-protein kinase erbB-2 (Homo sapiens, UniProt P04626); assay: biochemical; format: cell-based, Insect cells; conditions: insect cells;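 also: inhibition of HER2 kinase enzyme activity, measured with Poly(Glu:Tyr) as the phosphorylation substrate; in other assays of this panel Not Active means under 50% inhibition at 10 µM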
Cytochrome P450 2A6 = molecular target: T3, Cytochrome P450 2A6 (Homo sapiens, UniProt P11509); conditions: bti-tn-5b1-4; also: in other assays of this panel Not Active means under 50% inhibition at 10 µM
T3 sequence (P11509 whole entry): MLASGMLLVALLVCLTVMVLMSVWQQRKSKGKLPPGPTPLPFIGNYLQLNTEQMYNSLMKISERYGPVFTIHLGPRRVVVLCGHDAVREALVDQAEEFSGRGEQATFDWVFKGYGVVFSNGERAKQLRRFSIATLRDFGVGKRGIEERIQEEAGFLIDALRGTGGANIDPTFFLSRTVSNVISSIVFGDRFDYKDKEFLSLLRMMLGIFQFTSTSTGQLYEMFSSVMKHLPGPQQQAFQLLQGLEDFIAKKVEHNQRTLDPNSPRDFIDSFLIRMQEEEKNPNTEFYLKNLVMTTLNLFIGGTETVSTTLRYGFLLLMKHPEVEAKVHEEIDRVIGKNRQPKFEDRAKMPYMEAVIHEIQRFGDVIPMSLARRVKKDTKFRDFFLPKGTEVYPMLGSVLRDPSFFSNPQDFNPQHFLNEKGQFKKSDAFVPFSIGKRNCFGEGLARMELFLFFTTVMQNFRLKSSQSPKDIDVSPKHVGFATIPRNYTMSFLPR

[3] = molecular target: 5-hydroxytryptamine receptor 2B (Homo sapiens, UniProt P41595); format: cell membranes, CHO-K1, Membrane; conditions: cho-k1; also: in other assays of this panel Not Active means under 50% inhibition at 10 µM
[4] = DRUGMATRIX: Phosphodiesterase PDE4 enzyme inhibition (substrate: [3H]cAMP + cAMP); conditions: u-937; Not Active = under 50% inhibition at 10 µM
B2 bradykinin receptor = molecular target: T4, B2 bradykinin receptor (Homo sapiens, UniProt P30411); format: cell membranes, Membrane; conditions: chem-1; also: in other assays of this panel Not Active means under 50% inhibition at 10 µM
T4 sequence (P30411 whole entry): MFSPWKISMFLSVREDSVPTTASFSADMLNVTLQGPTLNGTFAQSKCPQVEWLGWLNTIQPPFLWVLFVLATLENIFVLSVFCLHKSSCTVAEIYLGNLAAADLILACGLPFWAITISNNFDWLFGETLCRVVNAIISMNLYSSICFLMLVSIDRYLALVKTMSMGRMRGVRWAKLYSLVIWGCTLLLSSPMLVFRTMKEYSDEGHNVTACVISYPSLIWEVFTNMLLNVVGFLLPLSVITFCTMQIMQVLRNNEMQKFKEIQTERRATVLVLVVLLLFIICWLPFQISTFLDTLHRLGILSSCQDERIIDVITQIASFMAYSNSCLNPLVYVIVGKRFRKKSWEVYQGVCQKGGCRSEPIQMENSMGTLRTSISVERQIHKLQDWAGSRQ

Nitric oxide synthase 1 = Nitric oxide synthase 1 (Rattus norvegicus, UniProt P29476); format: tissue-based, Cerebellum; also: in other assays of this panel Not Active means under 50% inhibition at 10 µM
Adenosine receptor A2a = Adenosine receptor A2a (Homo sapiens, UniProt P29274); assay: DRUGMATRIX: Adenosine A2A radioligand binding (ligand: […]); format: cell membranes, HEK293, Membrane; conditions: hek293; Not Active = under 50% inhibition at 10 µM
Adenosine receptor A2a, sequence (P29274 whole entry): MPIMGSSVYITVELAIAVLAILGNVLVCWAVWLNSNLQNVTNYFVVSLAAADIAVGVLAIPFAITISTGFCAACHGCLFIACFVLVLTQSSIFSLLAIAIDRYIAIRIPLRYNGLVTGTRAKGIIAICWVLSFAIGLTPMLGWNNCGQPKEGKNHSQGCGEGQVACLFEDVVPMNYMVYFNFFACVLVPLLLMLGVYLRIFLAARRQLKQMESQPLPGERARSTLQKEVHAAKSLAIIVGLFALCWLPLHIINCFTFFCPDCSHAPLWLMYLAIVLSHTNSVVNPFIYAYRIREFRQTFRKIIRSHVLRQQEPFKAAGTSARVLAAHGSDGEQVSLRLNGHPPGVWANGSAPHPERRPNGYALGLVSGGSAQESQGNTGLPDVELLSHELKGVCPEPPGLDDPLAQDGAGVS

5-hydroxytryptamine receptor 2B, sequence (P41595 whole entry): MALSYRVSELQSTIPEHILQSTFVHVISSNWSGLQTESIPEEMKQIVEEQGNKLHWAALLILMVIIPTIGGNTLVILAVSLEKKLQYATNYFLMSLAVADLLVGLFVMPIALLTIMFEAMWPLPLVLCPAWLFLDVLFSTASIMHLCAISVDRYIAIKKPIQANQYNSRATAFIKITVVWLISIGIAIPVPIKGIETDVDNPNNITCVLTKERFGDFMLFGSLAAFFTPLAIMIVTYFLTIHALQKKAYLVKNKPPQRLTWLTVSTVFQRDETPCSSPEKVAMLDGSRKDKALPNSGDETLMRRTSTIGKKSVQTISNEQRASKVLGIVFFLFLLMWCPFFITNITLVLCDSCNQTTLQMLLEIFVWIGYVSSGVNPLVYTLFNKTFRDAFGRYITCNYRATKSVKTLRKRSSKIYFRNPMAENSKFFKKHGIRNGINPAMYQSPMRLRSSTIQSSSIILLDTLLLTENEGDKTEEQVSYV
Nitric oxide synthase 1, sequence (P29476 whole entry): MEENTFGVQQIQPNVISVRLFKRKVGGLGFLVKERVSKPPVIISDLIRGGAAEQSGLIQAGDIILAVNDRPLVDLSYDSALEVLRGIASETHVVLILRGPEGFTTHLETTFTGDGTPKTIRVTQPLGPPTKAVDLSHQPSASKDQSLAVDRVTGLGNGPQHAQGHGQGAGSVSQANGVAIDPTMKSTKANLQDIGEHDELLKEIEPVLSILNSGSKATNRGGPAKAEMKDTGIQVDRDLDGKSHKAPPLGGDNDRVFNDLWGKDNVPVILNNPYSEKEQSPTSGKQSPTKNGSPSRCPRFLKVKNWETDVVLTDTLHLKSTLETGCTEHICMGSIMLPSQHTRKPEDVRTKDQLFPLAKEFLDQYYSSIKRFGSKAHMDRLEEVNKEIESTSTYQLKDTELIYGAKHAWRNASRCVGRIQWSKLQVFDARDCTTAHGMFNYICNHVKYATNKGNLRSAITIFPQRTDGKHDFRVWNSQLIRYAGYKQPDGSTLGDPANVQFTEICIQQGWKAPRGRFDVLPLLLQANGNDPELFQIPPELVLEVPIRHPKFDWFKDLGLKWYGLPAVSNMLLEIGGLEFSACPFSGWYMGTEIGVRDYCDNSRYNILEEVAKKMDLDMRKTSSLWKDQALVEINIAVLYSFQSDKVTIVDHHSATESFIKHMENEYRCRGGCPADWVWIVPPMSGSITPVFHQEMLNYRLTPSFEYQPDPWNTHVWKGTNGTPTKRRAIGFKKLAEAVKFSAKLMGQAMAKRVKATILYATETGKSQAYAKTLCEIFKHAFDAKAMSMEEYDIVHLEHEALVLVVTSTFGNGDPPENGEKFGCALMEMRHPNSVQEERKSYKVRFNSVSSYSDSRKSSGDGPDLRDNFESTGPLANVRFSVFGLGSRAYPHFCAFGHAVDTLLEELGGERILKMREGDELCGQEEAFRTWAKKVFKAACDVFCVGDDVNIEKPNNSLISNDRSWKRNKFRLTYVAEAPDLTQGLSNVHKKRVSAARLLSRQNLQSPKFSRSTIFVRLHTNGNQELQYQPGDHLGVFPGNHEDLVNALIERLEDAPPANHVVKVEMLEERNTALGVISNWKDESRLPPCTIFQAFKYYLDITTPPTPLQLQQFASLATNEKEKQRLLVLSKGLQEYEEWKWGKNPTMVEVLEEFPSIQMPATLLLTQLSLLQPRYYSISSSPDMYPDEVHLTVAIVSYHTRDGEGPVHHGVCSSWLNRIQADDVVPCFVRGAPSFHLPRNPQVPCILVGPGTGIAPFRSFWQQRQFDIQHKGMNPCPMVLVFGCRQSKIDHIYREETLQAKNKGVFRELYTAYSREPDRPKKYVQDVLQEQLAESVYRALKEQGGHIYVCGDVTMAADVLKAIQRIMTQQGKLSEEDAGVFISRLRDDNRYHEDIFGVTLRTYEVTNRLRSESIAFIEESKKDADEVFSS

CN1[C@@H]2CC[C@H]1C[C@@H](OC(=O)c1c[nH]c3ccccc13)C2 [TROPISETRON]
Not Active: IC50 [1] | IC50 (Endothelin-1 receptor) | IC50 [2] | IC50 (Cytochrome P450 2A6) | Ki (Cytochrome P450 2A6) | IC50 [3] | IC50 [4] | Ki [4] | IC50 (B2 bradykinin receptor) | IC50 (Nitric oxide synthase 1) | IC50 (Adenosine receptor A2a)

NC(=O)c1ncn([C@@H]2O[C@H](CO)[C@@H](O)[C@H]2O)n1 [RIBAVIRIN]
Not Active: IC50 [1] | IC50 (Endothelin-1 receptor) | IC50 [2] | IC50 (Cytochrome P450 2A6) | Ki (Cytochrome P450 2A6) | IC50 [3] | IC50 [4] | Ki [4] | IC50 (B2 bradykinin receptor) | IC50 (Nitric oxide synthase 1) | IC50 (Adenosine receptor A2a)

IVERMECTIN
Not Active: IC50 [1] | Ki [1] | IC50 (Endothelin-1 receptor) | Ki (Endothelin-1 receptor) | IC50 [2] | Ki [2] | IC50 (Cytochrome P450 2A6) | Ki (Cytochrome P450 2A6) | IC50 [3] | Ki [3] | IC50 [4] | Ki [4] | IC50 (B2 bradykinin receptor) | Ki (B2 bradykinin receptor) | IC50 (Nitric oxide synthase 1) | Ki (Nitric oxide synthase 1) | IC50 (Adenosine receptor A2a) | Ki (Adenosine receptor A2a)

CO[C@@H]1[C@@H](O[C@@H]2O[C@H](C)[C@@H](O[C@H]3C[C@@](C)(O)[C@@H](OC(=O)CC(C)C)[C@H](C)O3)[C@H](N(C)C)[C@H]2O)[C@@H](CC=O)C[C@@H](C)[C@@H](O)/C=C/C=C/C[C@@H](C)OC(=O)C[C@H]1O [KITASAMYCIN]
Not Active: IC50 [1] | IC50 (Endothelin-1 receptor) | IC50 [2] | IC50 (Cytochrome P450 2A6) | Ki (Cytochrome P450 2A6) | IC50 [3] | IC50 [4] | Ki [4] | IC50 (B2 bradykinin receptor) | IC50 (Nitric oxide synthase 1) | IC50 (Adenosine receptor A2a)

CN(N=O)C(=O)N[C@@H](C=O)[C@@H](O)[C@H](O)[C@H](O)CO [STREPTOZOCIN]
Not Active: IC50 [1] | IC50 (Endothelin-1 receptor) | IC50 [2] | IC50 (Cytochrome P450 2A6) | Ki (Cytochrome P450 2A6) | IC50 [3] | IC50 [4] | Ki [4] | IC50 (B2 bradykinin receptor) | IC50 (Nitric oxide synthase 1) | IC50 (Adenosine receptor A2a)

CC(C)(C)NCC(O)c1cc(O)cc(O)c1 (stereo not given) [TERBUTALINE]
Not Active: IC50 [1] | IC50 (Endothelin-1 receptor) | IC50 [2] | IC50 (Cytochrome P450 2A6) | Ki (Cytochrome P450 2A6) | IC50 [3] | IC50 [4] | Ki [4] | IC50 (B2 bradykinin receptor) | IC50 (Nitric oxide synthase 1) | IC50 (Adenosine receptor A2a)

Nc1ccc(S(N)(=O)=O)cc1 [SULFANILAMIDE]
Not Active: IC50 [1] | IC50 (Endothelin-1 receptor) | IC50 [2] | IC50 (Cytochrome P450 2A6) | Ki (Cytochrome P450 2A6) | IC50 [3] | IC50 [4] | Ki [4] | IC50 (B2 bradykinin receptor) | IC50 (Nitric oxide synthase 1) | IC50 (Adenosine receptor A2a)

CC[C@H]1OC(=O)[C@H](C)[C@@H](O[C@H]2C[C@@](C)(OC)[C@@H](O)[C@H](C)O2)[C@H](C)[C@@H](O[C@@H]2O[C@H](C)C[C@H](N(C)C)[C@H]2O)[C@](C)(O)C[C@@H](C)/C(=N\OCOCCOC)[C@H](C)[C@@H](O)[C@]1(C)O [ROXITHROMYCIN]
Not Active: IC50 [1] | IC50 (Endothelin-1 receptor) | IC50 [2] | IC50 (Cytochrome P450 2A6) | Ki (Cytochrome P450 2A6) | IC50 [3] | IC50 [4] | Ki [4] | IC50 (B2 bradykinin receptor) | IC50 (Nitric oxide synthase 1) | IC50 (Adenosine receptor A2a)

COC(=O)c1ccc(O)cc1 [METHYLPARABEN]
Not Active: IC50 [1] | IC50 (Endothelin-1 receptor) | IC50 [2] | IC50 (Cytochrome P450 2A6) | Ki (Cytochrome P450 2A6) | IC50 [3] | IC50 [4] | Ki [4] | IC50 (B2 bradykinin receptor) | IC50 (Nitric oxide synthase 1) | IC50 (Adenosine receptor A2a)

NC(CO)(CO)CO [TROMETHAMINE]
Not Active: IC50 [1] | IC50 (Endothelin-1 receptor) | IC50 [2] | IC50 (Cytochrome P450 2A6) | Ki (Cytochrome P450 2A6) | IC50 [3] | IC50 [4] | Ki [4] | IC50 (B2 bradykinin receptor) | IC50 (Nitric oxide synthase 1) | IC50 (Adenosine receptor A2a)

CCOC(=O)[C@H](CCc1ccccc1)N[C@@H](C)C(=O)N1[C@H](C(=O)O)C[C@@H]2CCC[C@@H]21
Not Active: IC50 [1] | IC50 (Endothelin-1 receptor) | IC50 [2] | IC50 (Cytochrome P450 2A6) | Ki (Cytochrome P450 2A6) | IC50 [3] | IC50 [4] | Ki [4] | IC50 (B2 bradykinin receptor) | IC50 (Nitric oxide synthase 1) | IC50 (Adenosine receptor A2a)

COc1cc(C(=O)NC2CCCNC2)cc(OC)c1OC (stereo not given) [TROXIPIDE]
Not Active: IC50 [1] | IC50 (Endothelin-1 receptor) | IC50 [2] | IC50 (Cytochrome P450 2A6) | Ki (Cytochrome P450 2A6) | IC50 [3] | IC50 [4] | Ki [4] | IC50 (B2 bradykinin receptor) | IC50 (Nitric oxide synthase 1) | IC50 (Adenosine receptor A2a)

CCC[C@@H]1C[C@@H](C(=O)N[C@@H]([C@H]2O[C@H](SC)[C@H](O)[C@@H](O)[C@H]2O)[C@@H](C)O)N(C)C1 [LINCOMYCIN]
Not Active: IC50 [1] | IC50 (Endothelin-1 receptor) | IC50 [2] | IC50 (Cytochrome P450 2A6) | Ki (Cytochrome P450 2A6) | IC50 [3] | IC50 [4] | Ki [4] | IC50 (B2 bradykinin receptor) | IC50 (Nitric oxide synthase 1) | IC50 (Adenosine receptor A2a)
